target: Serine/threonine-protein kinase pim-1 (Homo sapiens, UniProt P11309)
Sequence (P11309 whole entry): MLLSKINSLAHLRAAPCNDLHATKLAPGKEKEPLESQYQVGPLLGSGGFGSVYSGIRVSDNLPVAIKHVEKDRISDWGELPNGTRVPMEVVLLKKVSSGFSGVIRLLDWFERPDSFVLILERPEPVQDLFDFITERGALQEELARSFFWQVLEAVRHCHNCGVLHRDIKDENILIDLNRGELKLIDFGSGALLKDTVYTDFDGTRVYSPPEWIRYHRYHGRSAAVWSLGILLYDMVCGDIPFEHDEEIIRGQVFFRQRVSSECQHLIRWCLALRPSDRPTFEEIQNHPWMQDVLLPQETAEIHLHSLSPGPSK

Compound	IC50
CN1CCOc2c1c(N1CCC3(CC1)CC(N)C3)nn1c(-c3ccnc(C(F)(F)F)c3)cnc21 [US20240199630, Compound T4.9]	0.8 nM
CN1CCOc2c1c(NC1CC3(CCNCC3)C1)nn1c(-c3ccnc(C(F)(F)F)c3)cnc21 [US20240199630, Compound T4.8]	2 nM
CNCC1CCN(c2nn3c(-c4ccnc(C(F)(F)F)c4)cnc3c3c2N(C)CCO3)CC1 [US20240199630, Compound T4.2]	5.5 nM

Continued by falling IC50, values first:

IC50	Compound
8.3 nM	CN1CCOc2c1c(N1CCC3(CCCNC3)CC1)nn1c(-c3ccnc(C(F)(F)F)c3)cnc21 [US20240199630, Compound T4.6]
1.1 nM	CN1CCOc2c1c(N1CCCC3(CCNCC3)C1)nn1c(-c3ccnc(C(F)(F)F)c3)cnc21 [US20240199630, Compound T4.7]
0.9 nM	CN(CC1CCNCC1)c1nn2c(-c3ccnc(C(F)(F)F)c3)cnc2c2c1N(C)CCO2 [US20240199630, Compound T4.1]
